Experimental data reported in patent US6296870A, “Liposomes containing active agents” (Duke University, priority 1998, dated 2001).
“Also recorded” adds a separate entry of the source.

What was measured:
[1] = Mechanical tests of bilayer tensile strength; type: physicochemical
Experimental: (3) Mechanical tests of bilayer tensile strength were carried out on vesicles that contained 0-20 mol % PEG(750)-lipid as a function of MOPC uptake.
As the bilayer takes up more and more of a water-soluble second component (e.g., bile acid or MOPC) it is expected that it will become weaker and softer (Evans et al., In Bile Acids in Gasteroenterology Basic and Clinical Advances, Hoffman et al. (Eds.) Kluwer Academic Publishers, Doderecht, Boston and London, pp. 59-68 (1994); Needham and Zhelev, Ann. Biomed. Egr. 23:287 (1995); Zhelev, Biophys J. 71:257 (1996)). To test this model, the tensile rupture strength of vesicles containing various amounts of MOPC at stationary equilibrium was measured. […] To obtain the wide range of MOPC bilayer concentrations, several different lipid, PEG-lipid and MOPC solution concentrations were used (0.1 μM MOPC; 1.0 μM MOPC; 20% PEG-lipid and 100 μM MOPC; 4% PEG-lipid and 100 μM MOPC; and 1% PEG-lipid and 100 μM MOPC) as indicated on the plot next to each data point in FIG. 6.
PEG-lipids were used in some but not all of these vesicle tests. Whether the incorporation of the PEG-lipids (DMPE-(PEG)750) themselves had any effect on the tensile strength of the bilayer vesicles was also investigated. […]

[2] = MOPC uptake into and desorption from single vesicles, micropipet lysolipid exchange; type: physicochemical
Experimental: I. du Pont de Nemours and Co.) disc and the chloroform evaporated under nitrogen. Final traces of solvent were removed by placing the disc in an evacuated desiccator for 2 hours (Needham and Nunn, Biophys. J. 58:997 (1990)). The so-formed dried lipid layers were prehydrated with water vapor in a nitrogen carrier gas and then fully hydrated overnight in a sucrose solution at 40° C. […] Both the pure SOPC and SOPC/PEG(750)-lipid vesicles were re-suspended in a glucose solution of 205 mOsm for use in micromanipulation experiments as described below. […] The microscope images were recorded using a COHU CCD camera. […] The pipettes were connected to a manometer system that allowed the applied pressures to be changed and measured to an accuracy of 2 microatmospheres. The micropipet suction pressures were measured by differential transducer (Validyne DP15-24). The measured pressures together with real time were multiplexed on the recorded images with a multiplexer (Model 401, Vista Electronics, La Mesa, Calif., USA). The recorded images were used to measure the change of the vesicle projection length inside the holding pipet during uptake and desorption of lysolecithin, and to calculate the membrane tension. […] The vesicle projection length (Lp) inside the holding pipet is measured and the effects of various solutions on the Lp of the test vesicle are compared. […]

[3] = Critical micelle concentration by DPH fluorescence; type: physicochemical
Experimental: The critical micelle concentration (CMC) of the lysolipid was measured independently by DPH fluorescence following the method in Chattopadhyay and London, Analytical Biochem. 139:408 (1984). Briefly, a series of solutions containing increasing concentrations of MOPC in the range 10^-7 M to 10^-4 M were prepared. Diphenyl hexatriene (DPH), a lipid soluble fluorescent dye, was added to these samples and the intensity of fluorescence was measured by spectrofluorimeter at absorption and emission wavelengths of 358 nm and 430 nm, respectively. The CMC was determined by plotting the fluorescence intensity (in arbitrary units) verses concentration of MOPC solutions, made up by diluting a 100 mM stock solution of MOPC (solubilized initially by Tetrahydrofuran) in water (Chattopadhyay and London, Analytical Biochem. 139:408 (1984)).
This second trial used SOPC +20 mol % PEG2000 DSPE (0.2 mg/ml, 2×10^-4 M total lipid) for the lipid vesicles and 1 mM PEG2000 DSPE as micellar suspension. […] It was as though the PEG-lipids at this high concentration had formed a gel inside the vesicles.

[4] = unmodified egg PC membranes, flow rate 300 μm/s; cited from earlier work
[5] = TAXOL solubilized in MOPC micelle suspension; type: physicochemical
Experimental: For concentrations higher than 50 micromolar, samples were diluted in methanol and the original concentrations were back-calculated.
These components were mixed together in glass culture tubes, and the mixture was dried and kept under vacuum for approximately 15 hours to evaporate the solvent. MOPC was chosen because it has an acyl chain composition that matches the di-chain phospholipid, stearoyloleoylphosphatidylcholine, that was used to form the lipid bilayers of encapsulating liposomes, as discussed below. […] Surfactants with high CMCs (e.g., in the mM range) readily dissolve lipid membranes, even when the membranes contain cholesterol.

[6] = Solubility of TAXOL in water and organic solvents; type: physicochemical; details: hexane or tetradecane
[7] = cited from earlier work
[8] = small angle neutron scattering; cited from earlier work

## 1,2-Dimyristoyl-sn-Glycero-3-Phosphoethanolamine -N-PEG-750 [PEG(750)-lipid]
[1]
  tensile rupture strength, effect: did not reduce the tensile strength significantly, up to 20 mol % PEG-lipid

## CCCCCCCC/C=C\CCCCCCCC(=O)OC[C@@H](O)COP(=O)([O-])OCC[N+](C)(C)C [MOPC, mono-oleoyl-phosphatidylcholine]
[2]; above the CMC
  aggregation number in membrane: about 12
[2]; flow rate 400 μm/s, all PEG(750)-lipid concentrations, 5 vesicles
  overall rate of MOPC desorption: 0.4 ± 0.2 s⁻¹
[3]
  critical micelle concentration (CMC): 3 µM
[1]
  tensile rupture strength, effect: decrease with increasing MOPC concentration
[4]
  rate of MOPC desorption: 0.2 s⁻¹

## CC(=O)O[C@H]1C(=O)[C@@]2(C)[C@H]([C@H](OC(=O)c3ccccc3)[C@]3(O)C[C@H](OC(=O)[C@H](O)[C@@H](NC(=O)c4ccccc4)c4ccccc4)C(C)=C1C3(C)C)[C@]1(OC(C)=O)CO[C@@H]1C[C@@H]2O [TAXOL®]
[5]; 0.2 mM TAXOL, 5 mM MOPC
  stability of TAXOL in micelle suspension: at least 24 hours
[5]; 5 mM MOPC
  TAXOL solubilized in MOPC micelles: up to 1 mM
[5]; 20 mM LPC
  increase of solubility limit over aqueous solubility: about 4000 times
  solubility limit in aqueous media in presence of LPC: 4 mM
[5]; MOPC micelle, data not shown
  moles TAXOL solubilized per mole MOPC micelle: 1 mole TAXOL per mole MOPC
[6]
  solubility in alkanes / hexane: not soluble at all in alkanes such as hexane or tetradecane; also recorded: largely insoluble in hexane
[7]
  water solubility of TAXOL: about 1 micromolar

## CCCCCC(=O)OCC(COP(=O)([O-])OCC[N+](C)(C)C)OC(=O)CCCCC (stereo not drawn) [dicaproylphosphatidylcholine]
[8]
  micelle aggregation number: 19

## CCCCCCC(=O)OCC(COP(=O)([O-])OCC[N+](C)(C)C)OC(=O)CCCCCC (stereo not drawn) [diheptanoylphosphatidylcholine]
[8]
  micelle aggregation number: 27
